Experimental data taken from PMC12174726 (Chemmedchem, 2025).
“Also recorded” adds a separate entry of the source. Read-outs that look alike come from different tables or passages of the source. Values belong to the molecule of their own block, whether it stands above or below them. Residues, ends and D or L forms follow the SMILES beside them. *: point of attachment. Cbz = O=C(OCc1ccccc1)*

Tests used:
[1] = tested on: SU‐DHL‐10 cells; assay: MTT proliferation assay, SU‐DHL‐10; assay type: cell-based; details: for IC50: Homo sapiens, n = 2, read-out: IC50 (cell proliferation)
Experimental: (§1) Lymphoma cell lines were exposed to a large range of concentrations of each compound as single agent for 24 h or 72 h, followed by MTT and after 4 h SDS to stop the reaction. The day after, plates were read using a Cytation 3 plate reader (Biotek) and IC50s were calculated. DMSO was used as a control (untreated). IC50 is defined as the drug concentration giving 50% of proliferating cells compared to vehicle treated cells. IC50 was calculated by fitting the values via nonlinear regression (GraphPad Prism 8.0). Values represent mean ± S.D.

[2] = tested on: H3K27 acetylation; assay: Western blot of H3K27ac levels in SU‐DHL‐10 cells; assay type: cell-based; details: 24 h
[3] = target: T1, CBP (Homo sapiens, UniProt Q92793); assay: CBP catalytic activity inhibition; assay type: biochemical; details: means ± S.D., n = 3
Source text: (§2) To answer this question, we initially characterized them both for their inhibition of CBP and p300 catalytic activities.

[4] = tested on: histone deacetylases (HDACs); set-up: method as in PMID 26718586; details: cited from earlier work
[5] = target: T1, CBP; assay: Western blot of CBP levels in SU‐DHL‐10 cells; assay type: cell-based; set-up: WB analysis of CBP levels in the DLBCL SU‐DHL‐10 cell line; endogenous in cells; host or cells: SU-DHL-10
Experimental: (§3) Following compound treatment for the indicated time frame (4 to 24 h), cells were solubilized, and the protein content was determined using the BCA protein assay (Pierce Chemical Co). Lysates were fractionated by SDS–polyacrylamide gel electrophoresis (SDS‐PAGE). Membranes were incubated with anti‐CBP (CBP (D6C5) Rabbit mAb #7389, Cell Signaling Technology), anti‐p300 (Anti‐KAT3B/p300 antibody (3G230), Abcam) or anti‐GAPDH (GAPDH Monoclonal Antibody (FF26A), Thermo Fisher Scientific) antibodies overnight. This was followed by incubation with the appropriate horseradish peroxidase‐conjugated anti‐mouse or anti‐rabbit secondary antibodies (Cytiva Europe) for 1 h. Enhanced chemiluminescence detection was then done following the manufacturer's instructions. GAPDH was used as a loading control. Images were quantified with the internal software of the Fusion Solo S (Vilber).

[6] = tested on: WSU‐DLCL2; assay: MTT proliferation assay, WSU‐DLCL2; assay type: cell-based; details: Homo sapiens, WSUDLCL2, WSU‐DLCL2, 72 h treatment, n = 2, read-out: IC50 (cell proliferation)
Experimental: as §1

[7] = tested on: SU‐DHL‐2, SU‐DHL‐16, TMD8, and WSU‐DLCL2; assay: MTT proliferation assay, additional DLBCL cell lines (summary); assay type: cell-based; details: 72 h, range over DLBCL cell lines and both compounds, read-out: viability IC50, range over cell lines
Experimental: as §1

[8] = tested on: SU‐DHL‐2; assay: MTT proliferation assay, SU‐DHL‐2; assay type: cell-based; details: Homo sapiens, SU‐DHL‐2, 72 h treatment, n = 2, read-out: IC50 (cell proliferation)
Experimental: as §1

[9] = target: T2, p300 (Homo sapiens, UniProt Q09472); assay: Western blot of p300 levels in SU‐DHL‐10 cells; assay type: cell-based; set-up: WB analysis of p300 levels in the SU‐DHL‐10 cell line; endogenous in cells; host or cells: SU-DHL-10; details: for p300 protein levels (WB): SU‐DHL‐10, increasing concentrations
Experimental: as §3

[10] = tested on: TMD8; assay: MTT proliferation assay, TMD8; assay type: cell-based; details: Homo sapiens, TMD8, 72 h treatment, n = 2, read-out: IC50 (cell proliferation)
Experimental: as §1

[11] = target: T2, p300; assay: p300 catalytic activity inhibition; assay type: biochemical; details: means ± S.D., n = 3
Source text: as §2

[12] = tested on: SU‐DHL‐16; assay: MTT proliferation assay, SU‐DHL‐16; assay type: cell-based; details: Homo sapiens, SU‐DHL‐16, 72 h treatment, n = 2, read-out: IC50 (cell proliferation)
Experimental: as §1

[13] = tested on: neuroblastoma cell; set-up: method as in PMID 34772733; details: cited from earlier work
[14] = SU-DHL10, SU‐DHL‐10, 24 h treatment
[15] = SU-DHL10, SU‐DHL‐10, 72 h treatment

T2 sequence (Q09472 whole entry): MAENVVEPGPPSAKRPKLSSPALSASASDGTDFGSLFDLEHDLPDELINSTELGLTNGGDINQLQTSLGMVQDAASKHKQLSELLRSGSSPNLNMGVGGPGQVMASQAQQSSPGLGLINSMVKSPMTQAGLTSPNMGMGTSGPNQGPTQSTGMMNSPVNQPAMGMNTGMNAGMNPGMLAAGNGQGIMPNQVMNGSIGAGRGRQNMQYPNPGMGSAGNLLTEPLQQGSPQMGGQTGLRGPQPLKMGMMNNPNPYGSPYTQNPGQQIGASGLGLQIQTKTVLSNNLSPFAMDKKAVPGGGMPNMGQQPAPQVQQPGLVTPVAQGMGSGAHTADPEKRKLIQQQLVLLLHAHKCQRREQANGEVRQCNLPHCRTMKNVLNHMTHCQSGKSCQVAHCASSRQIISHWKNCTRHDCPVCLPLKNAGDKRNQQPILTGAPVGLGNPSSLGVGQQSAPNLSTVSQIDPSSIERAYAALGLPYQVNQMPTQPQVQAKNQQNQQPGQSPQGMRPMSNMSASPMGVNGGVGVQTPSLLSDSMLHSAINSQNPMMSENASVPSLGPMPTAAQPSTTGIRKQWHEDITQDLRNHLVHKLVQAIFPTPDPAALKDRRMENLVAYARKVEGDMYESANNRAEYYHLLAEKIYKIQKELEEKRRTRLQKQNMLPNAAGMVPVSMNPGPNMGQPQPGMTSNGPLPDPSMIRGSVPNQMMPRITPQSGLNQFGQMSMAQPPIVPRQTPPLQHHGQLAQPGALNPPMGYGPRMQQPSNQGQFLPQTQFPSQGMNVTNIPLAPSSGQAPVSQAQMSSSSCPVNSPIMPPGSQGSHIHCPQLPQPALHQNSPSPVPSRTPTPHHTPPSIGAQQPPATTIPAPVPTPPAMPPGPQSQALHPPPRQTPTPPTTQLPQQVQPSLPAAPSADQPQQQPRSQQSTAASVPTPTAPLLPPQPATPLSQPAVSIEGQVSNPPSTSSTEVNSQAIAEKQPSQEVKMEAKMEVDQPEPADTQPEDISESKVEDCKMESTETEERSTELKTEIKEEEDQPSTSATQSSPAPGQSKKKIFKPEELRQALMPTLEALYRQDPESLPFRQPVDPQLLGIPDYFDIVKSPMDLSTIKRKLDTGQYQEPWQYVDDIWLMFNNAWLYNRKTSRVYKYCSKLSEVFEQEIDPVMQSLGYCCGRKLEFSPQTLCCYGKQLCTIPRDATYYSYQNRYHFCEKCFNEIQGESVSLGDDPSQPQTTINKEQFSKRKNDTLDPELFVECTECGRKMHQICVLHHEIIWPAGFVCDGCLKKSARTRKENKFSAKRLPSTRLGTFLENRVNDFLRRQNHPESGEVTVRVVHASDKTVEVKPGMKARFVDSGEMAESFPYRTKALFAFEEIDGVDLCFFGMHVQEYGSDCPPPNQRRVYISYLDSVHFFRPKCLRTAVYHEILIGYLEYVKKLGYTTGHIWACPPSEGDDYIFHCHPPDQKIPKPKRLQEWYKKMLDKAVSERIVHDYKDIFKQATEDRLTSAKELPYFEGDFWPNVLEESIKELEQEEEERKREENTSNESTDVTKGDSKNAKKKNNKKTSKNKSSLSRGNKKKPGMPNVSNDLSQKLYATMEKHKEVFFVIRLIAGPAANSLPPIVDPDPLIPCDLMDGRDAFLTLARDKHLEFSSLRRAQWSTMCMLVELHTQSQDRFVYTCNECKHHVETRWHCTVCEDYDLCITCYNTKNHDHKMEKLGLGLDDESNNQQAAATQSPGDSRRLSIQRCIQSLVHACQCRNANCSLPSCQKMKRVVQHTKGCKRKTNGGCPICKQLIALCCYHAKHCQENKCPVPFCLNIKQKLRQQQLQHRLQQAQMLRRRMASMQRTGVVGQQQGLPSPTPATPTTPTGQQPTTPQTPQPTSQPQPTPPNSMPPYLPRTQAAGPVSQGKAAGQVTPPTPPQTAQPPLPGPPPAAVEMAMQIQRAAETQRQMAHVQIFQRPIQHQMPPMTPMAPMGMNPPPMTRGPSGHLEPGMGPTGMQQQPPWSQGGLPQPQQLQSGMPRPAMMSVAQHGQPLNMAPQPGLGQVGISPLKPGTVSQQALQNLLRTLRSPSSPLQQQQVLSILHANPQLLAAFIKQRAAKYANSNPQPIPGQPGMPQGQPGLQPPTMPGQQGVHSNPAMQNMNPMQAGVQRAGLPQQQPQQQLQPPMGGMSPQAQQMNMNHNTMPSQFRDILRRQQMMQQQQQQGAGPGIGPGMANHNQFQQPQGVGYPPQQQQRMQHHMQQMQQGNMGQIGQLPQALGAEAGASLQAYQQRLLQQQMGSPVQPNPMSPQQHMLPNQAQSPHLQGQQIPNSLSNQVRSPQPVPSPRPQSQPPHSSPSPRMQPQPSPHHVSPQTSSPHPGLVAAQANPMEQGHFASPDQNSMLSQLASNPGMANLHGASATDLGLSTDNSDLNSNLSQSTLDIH
T1 sequence (Q92793 whole entry): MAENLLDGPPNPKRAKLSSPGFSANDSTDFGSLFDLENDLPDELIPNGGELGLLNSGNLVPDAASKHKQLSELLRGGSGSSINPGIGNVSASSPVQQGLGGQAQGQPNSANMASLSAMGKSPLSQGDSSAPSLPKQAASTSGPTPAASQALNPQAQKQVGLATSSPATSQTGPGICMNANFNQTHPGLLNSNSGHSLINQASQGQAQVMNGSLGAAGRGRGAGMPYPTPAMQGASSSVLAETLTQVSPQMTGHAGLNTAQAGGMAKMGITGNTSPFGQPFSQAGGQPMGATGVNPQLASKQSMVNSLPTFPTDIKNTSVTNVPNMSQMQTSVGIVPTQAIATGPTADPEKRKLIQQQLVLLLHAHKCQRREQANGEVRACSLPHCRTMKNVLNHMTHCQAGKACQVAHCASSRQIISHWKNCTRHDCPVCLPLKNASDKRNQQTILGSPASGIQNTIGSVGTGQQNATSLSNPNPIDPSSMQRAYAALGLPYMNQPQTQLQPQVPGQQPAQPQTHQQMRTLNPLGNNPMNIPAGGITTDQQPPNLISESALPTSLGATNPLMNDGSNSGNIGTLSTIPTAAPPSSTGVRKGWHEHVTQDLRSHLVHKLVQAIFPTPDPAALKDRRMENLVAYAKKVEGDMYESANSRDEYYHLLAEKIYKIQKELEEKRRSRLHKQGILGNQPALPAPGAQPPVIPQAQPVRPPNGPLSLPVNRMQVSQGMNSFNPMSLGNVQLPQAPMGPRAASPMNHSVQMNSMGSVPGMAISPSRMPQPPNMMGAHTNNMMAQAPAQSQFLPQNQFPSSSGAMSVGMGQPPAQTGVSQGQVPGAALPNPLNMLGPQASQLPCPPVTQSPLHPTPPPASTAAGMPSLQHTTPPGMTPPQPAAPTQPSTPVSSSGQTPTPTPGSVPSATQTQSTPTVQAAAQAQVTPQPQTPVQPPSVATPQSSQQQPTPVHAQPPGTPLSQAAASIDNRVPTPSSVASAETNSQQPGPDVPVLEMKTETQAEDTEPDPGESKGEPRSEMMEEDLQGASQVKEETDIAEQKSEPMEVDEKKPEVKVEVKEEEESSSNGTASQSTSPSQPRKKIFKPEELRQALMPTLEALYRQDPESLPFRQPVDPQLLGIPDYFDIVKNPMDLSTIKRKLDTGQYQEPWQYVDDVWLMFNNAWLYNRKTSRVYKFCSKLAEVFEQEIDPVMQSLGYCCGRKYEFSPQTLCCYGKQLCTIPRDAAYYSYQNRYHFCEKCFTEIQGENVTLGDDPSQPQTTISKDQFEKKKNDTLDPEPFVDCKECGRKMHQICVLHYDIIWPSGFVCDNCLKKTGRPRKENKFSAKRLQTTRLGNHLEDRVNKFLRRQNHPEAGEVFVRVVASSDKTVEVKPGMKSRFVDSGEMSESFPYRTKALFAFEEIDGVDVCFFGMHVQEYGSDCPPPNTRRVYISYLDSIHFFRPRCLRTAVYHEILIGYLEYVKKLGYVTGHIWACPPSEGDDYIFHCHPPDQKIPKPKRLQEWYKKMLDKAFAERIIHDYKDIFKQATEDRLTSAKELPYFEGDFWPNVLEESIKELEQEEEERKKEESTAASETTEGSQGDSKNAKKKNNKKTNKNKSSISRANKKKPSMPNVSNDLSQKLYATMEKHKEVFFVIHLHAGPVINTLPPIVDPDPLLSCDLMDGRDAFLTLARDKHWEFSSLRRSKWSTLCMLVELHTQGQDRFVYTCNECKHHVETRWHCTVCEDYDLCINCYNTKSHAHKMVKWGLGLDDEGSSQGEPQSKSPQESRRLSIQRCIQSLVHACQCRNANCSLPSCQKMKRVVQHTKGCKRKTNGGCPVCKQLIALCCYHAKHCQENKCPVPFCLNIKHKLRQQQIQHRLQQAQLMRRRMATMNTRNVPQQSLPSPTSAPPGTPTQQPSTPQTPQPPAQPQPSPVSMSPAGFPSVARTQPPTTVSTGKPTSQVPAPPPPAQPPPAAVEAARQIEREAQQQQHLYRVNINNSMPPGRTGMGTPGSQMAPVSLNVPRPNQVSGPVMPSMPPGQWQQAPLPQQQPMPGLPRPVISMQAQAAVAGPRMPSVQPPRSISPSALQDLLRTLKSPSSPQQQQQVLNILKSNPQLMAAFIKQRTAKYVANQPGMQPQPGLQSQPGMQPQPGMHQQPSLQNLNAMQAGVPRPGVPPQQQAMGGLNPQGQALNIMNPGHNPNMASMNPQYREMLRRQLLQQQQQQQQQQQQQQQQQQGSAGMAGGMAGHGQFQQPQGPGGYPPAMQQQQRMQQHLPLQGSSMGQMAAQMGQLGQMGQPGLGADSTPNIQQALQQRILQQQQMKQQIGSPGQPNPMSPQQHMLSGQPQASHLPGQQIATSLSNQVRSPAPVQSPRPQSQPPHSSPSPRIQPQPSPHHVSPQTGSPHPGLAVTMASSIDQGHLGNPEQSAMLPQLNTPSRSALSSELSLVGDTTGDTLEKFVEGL

IC50 [3]: 0.21 ± 0.01 µM | CBP levels (WB) ([5]; SU‐DHL‐10, 10 μM, 8 h): no effect on CBP levels
Molecule: CC1=NN(c2ccc(C(=O)O)cc2)C(=O)/C1=C\c1ccc(-c2cc(C)c(C)cc2[N+](=O)[O-])o1 [Compound C646, C646, reference compound]
IC50 [1, 14]: 12.2 ± 3.02 µM | H3K27 acetylation ([2]; SU‐DHL‐10, 5 and 10 μM): did not reduce acetylation | inhibition of histone deacetylases (HDACs) [4]: inhibit histone deacetylases (HDACs) at low micromolar concentrations

Molecule: CNC(=O)Nc1ccc2c(c1)CC[C@@]21OC(=O)N(CC(=O)N(Cc2ccc(F)cc2)[C@@H](C)C(F)(F)F)C1=O [Compound A485, A‐485]
H3K27 acetylation ([2]; SU‐DHL‐10, 5 and 10 μM): reduced H3K27 acetylation in a dose‐dependent fashion

p300 levels (WB) ([9]; SU‐DHL‐10, 2.5 μM, 8 h): decreased protein levels | p300 levels (WB) ([9]; SU‐DHL‐10, 2.5 μM, 24 h): no difference was observed | p300 levels (WB) ([9]; SU‐DHL‐10, 10 μM, 24 h): significantly reduced p300 levels | IC50 [11]: 0.6 to 0.9 µM | IC50 [3]: 0.6 to 0.9 µM | CBP levels (WB) ([5]; SU‐DHL‐10, 2.5 μM, 8 h): slightly less active | CBP levels (WB) ([5]; SU‐DHL‐10, 2.5 μM, 24 h): returned to the initial levels | decrease of protein (CBP) levels ([5]; SU‐DHL‐10, 10 μM, 24 h): roughly 70%
Molecule: CC1=NN(c2ccc(C(=O)NCCOCCOCCNC(=O)COc3cccc4c3C(=O)N(C3CCC(=O)NC3=O)C4=O)cc2)C(=O)/C1=C\c1ccc(-c2cc(C)c(C)cc2[N+](=O)[O-])o1 (centres unmarked) [Compound 2, (Z)‐4‐(4‐((5‐(4,5‐dimethyl‐2‐nitrophenyl)furan‐2‐yl)methylene)‐3‐methyl‐5‐oxo‐4,5‐dihydro‐1 H‐pyrazol‐1‐yl)‐N‐(2‐(2‐(2‐(2‐((2‐(2,6‐dioxopiperidin‐3‐yl)‐1,3‐dioxoisoindolin‐4‐yl)oxy)acetamido)ethoxy)ethoxy)ethyl)benzamide]
IC50 [6]: 5.23 ± 0.85 µM | IC50 [1, 14]: 6.44 ± 0.81 µM | IC50 [1, 15]: 6.34 ± 1.76 µM | IC50 [7]: 2 to 8 µM | IC50 [8]: 4.96 ± 0.33 µM | IC50 [10]: 7.81 ± 3.04 µM | IC50 [12]: 8.02 ± 2.46 µM

Molecule: O=C1CCC(N2C(=O)c3ccccc3C2=O)C(=O)N1 (centres unmarked) [Thalidomide, thalidomide, reference compound]
IC50 [1, 14]: > 20 µM | effect on cell viability ([1]; SU‐DHL‐10, 24 h, up to 20 μM): no significant effects on cell viability

p300 levels (WB) ([9]; SU‐DHL‐10, 2.5 μM, 8 h): decreased protein levels | p300 levels (WB) ([9]; SU‐DHL‐10, 2.5 μM, 24 h): no difference was observed | p300 levels (WB) ([9]; SU‐DHL‐10, 10 μM, 24 h): significantly reduced p300 levels | p300 protein levels (WB) ([9]; 24 h): dose‐dependent reduction | IC50 [11]: 0.6 to 0.9 µM | IC50 [3]: 0.6 to 0.9 µM | CBP levels (WB) ([5]; SU‐DHL‐10, 2.5 μM, 24 h): returned to the initial levels | decrease of protein (CBP) levels ([5]; SU‐DHL‐10, 10 μM, 24 h): roughly 70% | CBP levels (WB), combination with C646 ([5]; SU‐DHL‐10, 1 2.5 μM + C646 10 μM, 8 h): did not affect CBP levels | CBP degradation (WB), co‐incubation with MG132 ([5]; SU‐DHL‐10, 1 2.5 μM + MG132 10 μM, 8 h): abolishes 1‐induced CBP degradation
Molecule: CC1=NN(c2ccc(C(=O)NCCCOCCOCCOCCCNC(=O)COc3cccc4c3C(=O)N(C3CCC(=O)NC3=O)C4=O)cc2)C(=O)/C1=C\c1ccc(-c2cc(C)c(C)cc2[N+](=O)[O-])o1 (centres unmarked) [Compound 1, (Z)‐4‐(4‐((5‐(4,5‐dimethyl‐2‐nitrophenyl)furan‐2‐yl)methylene)‐3‐methyl‐5‐oxo‐4,5‐dihydro‐1 H‐pyrazol‐1‐yl)‐N‐(1‐((2‐(2,6‐dioxopiperidin‐3‐yl)‐1,3‐dioxoisoindolin‐4‐yl)oxy)‐2‐oxo‐7,10,13‐trioxa‐3‐azahexadecan‐16‐yl)benzamide]
IC50 [6]: 3.24 ± 0.28 µM | IC50 [1, 14]: 3.44 ± 0.12 µM | IC50 [1, 15]: 2.73 ± 0.072 µM | IC50 [7]: 2 to 8 µM | IC50 [8]: 2.05 ± 0.068 µM | H3K27 acetylation ([2]; SU‐DHL‐10, 5 μM): decreased H3K27 acetylation | IC50 [10]: 1.95 ± 0.069 µM | CBP levels (WB) ([5]; SU‐DHL‐10, 2.5 μM, 8 h): reduced the levels of CBP; also recorded: decreased the levels of CBP | CBP protein levels (WB) ([5]; SU‐DHL‐10, increasing concentrations, 24 h): dose‐dependent reduction; also recorded: slightly better efficacy on CBP compared to the previously reported PROTAC JQAD1 | IC50 [12]: 2.99 ± 0.19 µM

p300 protein levels (WB) ([9]; 24 h): slightly higher potency
Molecule: JQAD1
H3K27 acetylation ([2]; SU‐DHL‐10, 5 and 10 μM): reduced H3K27 acetylation in a dose‐dependent fashion | IC50, neuroblastoma cell viability [13]: nanomolar range

Molecule: CC(C)C[C@@H](C=O)NC(=O)[C@H](CC(C)C)NC(=O)[C@H](CC(C)C)NC(=O)OCc1ccccc1 [MG132, reference compound] (Cbz-Leu-Leu-Leu-aldehyde)
IC50 [1, 14]: 0.144 ± 0.002 µM
